pIC50: −log10 of the molar value. Blank lines part the entries; values can stand above or below the compound they belong to. Calls of active or inactive are those of the source. The rule behind the calls is not given here.
Tests used:
[1] = biological target: Endothelial PAS domain-containing protein 1 (Homo sapiens) (UniProt Q99814); experiment: HIF-2a and HIF-1a reporter inhibition panel, dose response, selectivity assay for HIF-2a inhibitor project, cell-based, luminescence (AID 651581)
[2] = biological target: Hypoxia-inducible factor 1-alpha (Homo sapiens) (UniProt Q16665); experiment: as above; conditions: HIF-1a
Sequence of Hypoxia-inducible factor 1-alpha (Homo sapiens) (Q16665 whole entry, looked up): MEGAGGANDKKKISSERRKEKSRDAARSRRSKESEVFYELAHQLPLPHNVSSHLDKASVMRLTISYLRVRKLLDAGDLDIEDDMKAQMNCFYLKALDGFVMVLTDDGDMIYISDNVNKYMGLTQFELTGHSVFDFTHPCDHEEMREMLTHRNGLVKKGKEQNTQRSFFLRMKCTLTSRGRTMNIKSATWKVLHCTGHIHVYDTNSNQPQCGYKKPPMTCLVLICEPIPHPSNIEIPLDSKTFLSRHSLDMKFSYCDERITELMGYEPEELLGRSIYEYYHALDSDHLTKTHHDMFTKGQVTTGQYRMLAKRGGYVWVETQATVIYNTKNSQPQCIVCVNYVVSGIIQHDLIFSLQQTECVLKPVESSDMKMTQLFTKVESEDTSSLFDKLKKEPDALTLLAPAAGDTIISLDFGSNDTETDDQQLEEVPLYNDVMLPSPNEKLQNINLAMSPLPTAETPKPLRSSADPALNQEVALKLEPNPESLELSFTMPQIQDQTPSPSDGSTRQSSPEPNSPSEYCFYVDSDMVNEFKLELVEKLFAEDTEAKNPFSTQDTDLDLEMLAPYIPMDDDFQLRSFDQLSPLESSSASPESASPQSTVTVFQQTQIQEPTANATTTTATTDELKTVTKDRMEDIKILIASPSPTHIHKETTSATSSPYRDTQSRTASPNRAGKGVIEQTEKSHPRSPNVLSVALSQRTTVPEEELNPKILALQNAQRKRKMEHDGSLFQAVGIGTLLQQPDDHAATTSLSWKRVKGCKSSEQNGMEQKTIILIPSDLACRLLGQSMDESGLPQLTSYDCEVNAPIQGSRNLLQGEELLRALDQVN

SMILES: CCOC(=O)c1c(C)nn(-c2ccc(NC(=O)c3c(C)noc3C)cc2)c1C
IC50 ([1]; HIF-2a PANC, mean of runs): inactive
pIC50 ([1]; HIF-2a PANC, run 1): 4.81
pIC50 ([1]; HIF-2a PANC, run 2): 4.88
pIC50 ([1]; HIF-2a, mean of runs): 5.37
pIC50 ([1]; HIF-2a, run 1): 5.37
pIC50 ([1]; HIF-2a, run 2): 5.37
IC50 ([2]; mean of runs): inactive
pIC50 ([2]; run 1): 4.99
pIC50 ([2]; run 2): 4.93

SMILES: COc1cccc(NC(=O)c2nc(S(C)(=O)=O)ncc2Cl)c1
IC50 ([1]; HIF-2a PANC, mean of runs): inactive
pIC50 ([1]; HIF-2a PANC, run 1): 4.49
pIC50 ([1]; HIF-2a PANC, run 2): 4.05
IC50 ([1]; HIF-2a, mean of runs): inactive
pIC50 ([1]; HIF-2a, run 1): 4.91
pIC50 ([1]; HIF-2a, run 2): 4.95
IC50 ([2]; mean of runs): inactive
pIC50 ([2]; run 1): 4.83
pIC50 ([2]; run 2): 4.55

SMILES: CCOC(=O)C1CCN(C(=O)Nc2ccc3snnc3c2)CC1
IC50 ([1]; HIF-2a PANC, mean of runs): inactive
pIC50 ([1]; HIF-2a PANC, run 1): 4.71
pIC50 ([1]; HIF-2a PANC, run 2): 4.25
IC50 ([1]; HIF-2a, mean of runs): inactive
pIC50 ([1]; HIF-2a, run 1): 5.07
pIC50 ([1]; HIF-2a, run 2): 4.83
pIC50 ([2]; run 1): < 4.00
pIC50 ([2]; run 2): < 4.00

SMILES: O=C(O)c1cccc(CSc2nnc(-c3ccc(Cl)cc3)o2)c1
pIC50 ([1]; HIF-2a PANC, mean of runs): 5.55
pIC50 ([1]; HIF-2a PANC, run 1): 5.52
pIC50 ([1]; HIF-2a PANC, run 2): 5.59
pIC50 ([1]; HIF-2a, mean of runs): 5.71
pIC50 ([1]; HIF-2a, run 1): 5.73
pIC50 ([1]; HIF-2a, run 2): 5.68
pIC50 ([2]; run 1): < 4.00
pIC50 ([2]; run 2): < 4.00

SMILES: CC(C)COc1ccc(C(=S)N2CCCC2)cc1
pIC50 ([1]; HIF-2a PANC, mean of runs): 4.84
pIC50 ([1]; HIF-2a PANC, run 1): 4.87
pIC50 ([1]; HIF-2a PANC, run 2): 4.81
pIC50 ([1]; HIF-2a, mean of runs): 5.31
pIC50 ([1]; HIF-2a, run 1): 5.36
pIC50 ([1]; HIF-2a, run 2): 5.27
pIC50 ([2]; run 1): < 4.00
pIC50 ([2]; run 2): < 4.00

More lines, now with the values ahead:

pIC50 ([1]; HIF-2a PANC, mean of runs): 5.71
pIC50 ([1]; HIF-2a PANC, run 1): 5.69
pIC50 ([1]; HIF-2a PANC, run 2): 5.75
pIC50 ([1]; HIF-2a, run 1): 4.66
pIC50 ([1]; HIF-2a, run 2): < 4.00
IC50 ([2]; mean of runs): > 99 µM (inactive)
pIC50 ([2]; run 1): < 4.00
pIC50 ([2]; run 2): < 4.00
SMILES: O=C(Nc1ccc(NC(=O)c2cccs2)cc1)c1ccc2c(c1)OCCO2

IC50 ([1]; HIF-2a PANC, mean of runs): > 99 µM (inactive)
pIC50 ([1]; HIF-2a PANC, run 1): < 4.00
pIC50 ([1]; HIF-2a PANC, run 2): < 4.00
IC50 ([1]; HIF-2a, mean of runs): inactive
pIC50 ([1]; HIF-2a, run 1): 4.95
pIC50 ([1]; HIF-2a, run 2): 4.98
pIC50 ([2]; mean of runs): 4.08
pIC50 ([2]; run 1): 4.12
pIC50 ([2]; run 2): 4.05
SMILES: O=C1C=C(c2ccccc2)C(=O)N1Nc1ccccc1

pIC50 ([1]; HIF-2a PANC, mean of runs): 5.64
pIC50 ([1]; HIF-2a PANC, run 1): 5.91
pIC50 ([1]; HIF-2a PANC, run 2): 5.47
pIC50 ([1]; HIF-2a, mean of runs): 5.11
pIC50 ([1]; HIF-2a, run 1): 5.07
pIC50 ([1]; HIF-2a, run 2): 5.15
pIC50 ([2]; mean of runs): 4.54
pIC50 ([2]; run 1): 4.86
pIC50 ([2]; run 2): 4.36
SMILES: FC(F)(F)c1cnc(NNC(=S)Nc2ccccc2)c(Cl)c1

pIC50 ([1]; HIF-2a PANC, run 1): < 4.00
pIC50 ([1]; HIF-2a PANC, run 2): 4.30
IC50 ([1]; HIF-2a, mean of runs): > 99 µM (inactive)
pIC50 ([1]; HIF-2a, run 1): < 4.00
pIC50 ([1]; HIF-2a, run 2): < 4.00
pIC50 ([2]; run 1): 4.07
pIC50 ([2]; run 2): < 4.00
SMILES: O=C(Nc1sc2c(c1C(=O)O)CCC2)c1ccccc1Cl
